According to ChEMBL document CHEMBL5321210, “N-adamantyl-anthranil amide derivatives: New selective ligands for the cannabinoid receptor subtype 2 (CB2R)” (Eur J Med Chem, 2023):
The source made the active and inactive calls. No cut-off for these calls is given here.

Columns and labels:
THP-1 [1] = test: Antiinflammatory against LPS-activated human THP-1 monocytes assessed as decrease in IL-1beta production at 10 uM incubated for 24 hrs in the presence of JTE907 by ELISA coupled qRT-PCR analysis; assay type: functional, cell-based
THP-1 [2] = test: Antiinflammatory activity in human THP-1 monocytes assessed as increase in IL-10 production at 10 uM incubated for 24 hrs by ELISA coupled qRT-PCR analysis; assay type: functional, cell-based
THP-1 [3] = test: Antiinflammatory activity in PMA-differentiated human THP-1 monocytes assessed as decrease in IL-1beta production at 10 uM incubated for 24 hrs in the presence of N-(adamantan-1-yl)-4-(pentylamino)-[1,1'-biphenyl]-3-carboxamide by ELISA coupled qRT-PCR analysis; assay type: functional, cell-based
THP-1 [4] = test: Antiinflammatory activity in human THP-1 monocytes assessed as decrease in IFN-gamma production at 10 uM incubated for 24 hrs in the presence of JTE907 by ELISA coupled qRT-PCR analysis; assay type: functional, cell-based
THP-1 [5] = test: Antiinflammatory activity in PMA-differentiated human THP-1 macrophages assessed as reduction in IL-6 production at 10 uM incubated for 24 hrs by ELISA coupled qRT-PCR analysis relative to control; assay type: functional; set-up: scale not given: the % may be the effect or the level left
THP-1 [6] = test: Antiinflammatory activity in LPS-activated PMA-differentiated human THP-1 macrophages assessed as decrease in IL-6 production at 10 uM incubated for 24 hrs in the presence of JTE907 by ELISA coupled qRT-PCR analysis; assay type: functional, cell-based
THP-1 [7] = test: Antiinflammatory activity in PMA-differentiated human THP-1 macrophages assessed as increase in IL-4 production at 10 uM incubated for 24 hrs by ELISA coupled qRT-PCR analysis; assay type: functional, cell-based
THP-1 [8] = test: Antiinflammatory activity in PMA-differentiated human THP-1 macrophages assessed as decrease in TNF-alpha production at 10 uM incubated for 24 hrs in the presence of JTE907 by ELISA coupled qRT-PCR analysis; assay type: functional, cell-based
THP-1 [9] = test: Antiinflammatory activity in PMA-differentiated human THP-1 monocytes assessed as decrease in TNF-alpha production at 10 uM incubated for 24 hrs in the presence of N-(adamantan-1-yl)-4-(pentylamino)-[1,1'-biphenyl]-3-carboxamide by ELISA coupled qRT-PCR analysis; assay type: functional, cell-based
THP-1 [10] = test: Antiinflammatory activity in PMA-differentiated human THP-1 macrophages assessed as decrease in IL-1beta production at 10 uM incubated for 24 hrs in the presence of JTE907 by ELISA coupled qRT-PCR analysis; assay type: functional, cell-based
THP-1 [11] = test: Antiinflammatory activity in PMA-differentiated human THP-1 macrophages assessed as reduction in IFN-gamma production at 10 uM incubated for 24 hrs by ELISA coupled qRT-PCR analysis relative to control; assay type: functional; set-up: scale not given: the % may be the effect or the level left
THP-1 [12] = test: Antiinflammatory activity in human THP-1 monocytes assessed as increase in IL-4 production at 10 uM incubated for 24 hrs in the presence of N-(adamantan-1-yl)-4-(pentylamino)-[1,1'-biphenyl]-3-carboxamide by ELISA coupled qRT-PCR analysis; assay type: functional, cell-based
THP-1 [13] = test: Antiinflammatory activity against LPS-activated human THP-1 monocytes assessed as decrease in IL-1beta production at 10 uM incubated for 24 hrs in the presence of N-(adamantan-1-yl)-4-(pentylamino)-[1,1'-biphenyl]-3-carboxamide by ELISA coupled qRT-PCR analysis; assay type: functional, cell-based
THP-1 [14] = test: Antiinflammatory activity in PMA-differentiated human THP-1 monocytes assessed as increase in IL-10 production at 10 uM incubated for 24 hrs in the presence of N-(adamantan-1-yl)-4-(pentylamino)-[1,1'-biphenyl]-3-carboxamide by ELISA coupled qRT-PCR analysis; assay type: functional, cell-based
THP-1 [15] = test: Antiinflammatory activity in human THP-1 monocytes assessed as decrease in IFN-gamma production at 10 uM incubated for 24 hrs in the presence of N-(adamantan-1-yl)-4-(pentylamino)-[1,1'-biphenyl]-3-carboxamide by ELISA coupled qRT-PCR analysis; assay type: functional, cell-based
THP-1 [16] = test: Antiinflammatory activity against LPS-activated PMA-differentiated human THP-1 macrophages assessed as increase in IL-10 production at 10 uM incubated for 24 hrs by ELISA coupled qRT-PCR analysis; assay type: functional, cell-based
THP-1 [17] = test: Antiinflammatory activity in PMA-differentiated human THP-1 monocytes assessed as decrease in IL-6 production at 10 uM incubated for 24 hrs in the presence of N-(adamantan-1-yl)-4-(pentylamino)-[1,1'-biphenyl]-3-carboxamide by ELISA coupled qRT-PCR analysis; assay type: functional, cell-based
THP-1 [18] = test: Antiinflammatory activity in PMA-differentiated human THP-1 macrophages assessed as reduction in IFN-gamma production at 1 to 10 uM incubated for 24 hrs by ELISA coupled qRT-PCR analysis relative to control; assay type: functional; set-up: scale not given: the % may be the effect or the level left; conditions: dose 1-10 µM
THP-1 [19] = test: Antiinflammatory activity in human THP-1 monocytes assessed as increase in IL-4 production incubated for 24 hrs by ELISA coupled qRT-PCR analysis; assay type: functional, cell-based; conditions: dose 1-10 µM
THP-1 [20] = test: Antiinflammatory activity in LPS-activated PMA-differentiated human THP-1 macrophages assessed as decrease in IL-1beta production at 1 to 10 uM incubated for 24 hrs in the presence of JTE907 by ELISA coupled qRT-PCR analysis; assay type: functional, cell-based; conditions: dose 1-10 µM
THP-1 [21] = test: Antiinflammatory activity in human THP-1 monocytes assessed as decrease in IFN-gamma production incubated for 24 hrs by ELISA coupled qRT-PCR analysis; assay type: functional, cell-based; conditions: dose 1-10 µM
THP-1 [22] = test: Antiinflammatory activity against LPS-activated PMA-differentiated human THP-1 macrophages assessed as decrease in IL-6 production at 1 to 10 uM incubated for 24 hrs by ELISA coupled qRT-PCR analysis relative to control; assay type: functional; set-up: scale not given: the % may be the effect or the level left; conditions: dose 1-10 µM
THP-1 [23] = test: Antiinflammatory activity in human THP-1 monocytes assessed as decrease in TNF-alpha production at 1 to 10 uM incubated for 24 hrs in the presence of JTE907 by ELISA coupled qRT-PCR analysis; assay type: functional, cell-based; conditions: dose 1-10 µM
THP-1 [24] = test: Antiinflammatory activity against LPS-activated PMA-differentiated human THP-1 macrophages assessed as decrease in TNF-alpha production at 1 to 10 uM incubated for 24 hrs by ELISA coupled qRT-PCR analysis relative to control; assay type: functional; set-up: scale not given: the % may be the effect or the level left; conditions: dose 1-10 µM
THP-1 [25] = test: Antiinflammatory activity in PMA-differentiated human THP-1 macrophages assessed as increase in IL-4 production at 1 to 10 uM incubated for 24 hrs in the presence of JTE907 by ELISA coupled qRT-PCR analysis; assay type: functional, cell-based; conditions: dose 1-10 µM
THP-1 [26] = test: Antiinflammatory activity in PMA-differentiated human THP-1 macrophages assessed as decrease in TNF-alpha production at 1 to 10 uM incubated for 24 hrs in the presence of JTE907 by ELISA coupled qRT-PCR analysis; assay type: functional, cell-based; conditions: dose 1-10 µM
THP-1 [27] = test: Antiinflammatory activity in human THP-1 monocytes assessed as decrease in IL-1beta production at 1 to 10 uM incubated for 24 hrs in the presence of JTE907 by ELISA coupled qRT-PCR analysis; assay type: functional, cell-based; conditions: dose 1-10 µM
THP-1 [28] = test: Antiinflammatory against LPS-activated human THP-1 monocytes assessed as decrease in IL-6 production at 1 to 10 uM incubated for 24 hrs in the presence of JTE907 by ELISA coupled qRT-PCR analysis; assay type: functional, cell-based; conditions: dose 1-10 µM

`O=C(NC1CCCCC1)c1cn(CCN2CCOCC2)c2cc(Cl)ccc2c1=O` was tested, and the Activity (THP-1 [1]) was “inactive”, the Activity (THP-1 [2]) was “Active” and the Activity (THP-1 [3]) was “inactive”. For the same compound, the Activity (THP-1 [4]) was “inactive”, the Activity (THP-1 [5]) was 50% and the Activity (THP-1 [6]) was “inactive”. The Activity (THP-1 [7]) was “Active”, the Activity (THP-1 [8]) was “inactive” and the Activity (THP-1 [9]) was “inactive”. The Activity (THP-1 [10]) was “inactive”, the Activity (THP-1 [11]) was 50% and the Activity (THP-1 [12]) was “inactive”. For the same compound, the Activity (THP-1 [13]) was “inactive”, the Activity (THP-1 [14]) was “inactive” and the Activity (THP-1 [15]) was “inactive”. For the same compound, the Activity (THP-1 [16]) was “Active” and the Activity (THP-1 [17]) was “inactive”.

In the case of `CCCCCNc1ccccc1C(=O)NC12CC3CC(CC(C3)C1)C2`, the Activity (THP-1 [18]) is reported as 50%, the Activity (THP-1 [19]) is reported as “Dose-Dependent Effect” and the Activity (THP-1 [20]) is reported as “inactive”. The Activity (THP-1 [21]) was “Dose-Dependent Effect”, the Activity (THP-1 [22]) was 70% and the Activity (THP-1 [23]) was “inactive”. For the same compound, the Activity (THP-1 [24]) was 70%, the Activity (THP-1 [25]) was “inactive” and the Activity (THP-1 [26]) was “inactive”. For the same compound, the Activity (THP-1 [27]) was “inactive” and the Activity (THP-1 [28]) was “inactive”.
